One may read the Ki as the equilibrium dissociation constant of an inhibitor or competing ligand from its target. Low readings indicate a stronger hold on the target, high ones a looser hold on the target.

Chain of D(2) dopamine receptor (P14416 whole entry): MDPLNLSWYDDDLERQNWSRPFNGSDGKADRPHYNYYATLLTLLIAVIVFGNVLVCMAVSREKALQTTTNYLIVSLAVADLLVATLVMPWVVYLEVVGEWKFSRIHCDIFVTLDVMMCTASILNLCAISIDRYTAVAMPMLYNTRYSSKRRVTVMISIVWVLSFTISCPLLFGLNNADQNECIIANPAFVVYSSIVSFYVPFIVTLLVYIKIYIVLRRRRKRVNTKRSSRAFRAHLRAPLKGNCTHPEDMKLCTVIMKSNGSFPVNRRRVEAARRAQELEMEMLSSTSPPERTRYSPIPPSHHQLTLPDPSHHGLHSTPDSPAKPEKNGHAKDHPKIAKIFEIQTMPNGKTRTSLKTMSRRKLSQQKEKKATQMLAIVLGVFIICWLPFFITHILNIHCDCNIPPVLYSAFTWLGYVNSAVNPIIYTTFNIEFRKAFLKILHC

One test addresses D(2) dopamine receptor (Homo sapiens, UniProt P14416). Put plainly: Displacement of [125I]iodosulpiride from human Dopamine receptor D2 expressed in CHO cells. Format: cell-based. On the technique in general: Loss of bound radioactivity is the signal in a displacement assay; it reports binding, not function.
`CCCN(CCCCNC(=O)c1ccc(-c2ccccc2)cc1)C1CCc2c(cccc2OCC2CC2)C1` (stereo not given): the Ki was 794 nM.

Take `CCCN(CCCCNC(=O)c1ccc(-c2ccccc2)cc1)C1CCc2c(C#N)cccc2C1` (stereo not given): the Ki was 100 nM.

The compound `CCCN(CCCCNC(=O)c1ccc(-c2ccccc2)cc1)C1CCc2c(cccc2C(N)=O)C1` (stereo not given) had an inhibitory constant (Ki) of 631 nM. This Ki is about 6.3-fold higher than that of the compound before.

In the case of `CCCN(CCCCNC(=O)c1ccc(-c2ccccc2)cc1)C1CCc2c(Cl)cccc2C1` (stereo not given), the Ki was 398 nM. Compared with the last compound, the Ki is about 1.6-fold lower.

`CCCN(CCCCNC(=O)c1ccc(-c2ccccc2)cc1)C1CCc2ccccc2C1` (stereo not given): affinity was put at a Ki of 316 nM.

The compound `CCCN(CCCCNC(=O)c1ccc(-c2ccccc2)cc1)C1CCc2c(cccc2OS(=O)(=O)C(F)(F)F)C1` (stereo not given) gave an inhibition constant (Ki) of 398 nM.

The compound `COc1cccc2c1CCC(N(C)CCCCNC(=O)c1ccc(-c3ccccc3)cc1)C2` (stereo not given) showed a Ki of 316 nM.

`CCCN(CCCCNC(=O)c1ccc(-c2ccccc2)cc1)C1CCc2c(O)cccc2C1` (stereo not given) showed an inhibitory constant (Ki) of 25.1 nM.

`CCCN(CCCCNC(=O)c1ccc(-c2ccccc2)cc1)C1CCc2c(Br)cccc2C1` (stereo not given): the affinity, expressed as Ki, was 251 nM.

`CCCN(CCCCNC(=O)c1ccc(-c2ccccc2)cc1)C1CCc2c(cccc2OS(C)(=O)=O)C1` (stereo not given): affinity was put at a Ki of 251 nM.

For the compound `CCCN(CCCCNC(=O)c1ccc(-c2ccccc2)cc1)C1CCc2c(cccc2OC)C1` (stereo not given), affinity was put at a Ki of 126 nM. This Ki lies about 2-fold lower than the previous one.

The compound `CN(CCCCNC(=O)c1ccc(-c2ccccc2)cc1)C1CCc2c(O)cccc2C1` (stereo not given) showed a Ki of 126 nM.

For a further test, the target named is D(3) dopamine receptor (Homo sapiens, UniProt P35462). In words: Displacement of [125I]iodosulpiride from human Dopamine receptor D3 expressed in CHO cells. Format: cell-based.
Chain of D(3) dopamine receptor (P35462 whole entry): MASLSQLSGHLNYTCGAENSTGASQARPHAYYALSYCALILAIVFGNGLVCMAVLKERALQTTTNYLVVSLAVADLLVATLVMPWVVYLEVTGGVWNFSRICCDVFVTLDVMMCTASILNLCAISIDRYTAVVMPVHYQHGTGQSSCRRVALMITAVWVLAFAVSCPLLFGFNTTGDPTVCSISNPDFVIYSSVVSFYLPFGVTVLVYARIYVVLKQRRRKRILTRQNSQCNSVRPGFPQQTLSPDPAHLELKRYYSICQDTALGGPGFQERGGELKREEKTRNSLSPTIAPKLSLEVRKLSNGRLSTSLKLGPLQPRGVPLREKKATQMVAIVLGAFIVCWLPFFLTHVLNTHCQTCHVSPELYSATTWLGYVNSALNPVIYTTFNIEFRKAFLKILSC
Compound `CCCN(CCCCNC(=O)c1ccc(-c2ccccc2)cc1)C1CCc2c(cccc2OCC2CC2)C1` (stereo not given) had a Ki of 2.51 nM.

The compound `CCCN(CCCCNC(=O)c1ccc(-c2ccccc2)cc1)C1CCc2c(C#N)cccc2C1` (stereo not given) had a Ki of 0.501 nM.

As for `CCCN(CCCCNC(=O)c1ccc(-c2ccccc2)cc1)C1CCc2c(cccc2C(N)=O)C1` (stereo not given), affinity was put at a Ki of 3.98 nM.

Compound `CCCN(CCCCNC(=O)c1ccc(-c2ccccc2)cc1)C1CCc2c(Cl)cccc2C1` (stereo not given) showed an inhibitory constant (Ki) of 1.58 nM.

In turn, `CCCN(CCCCNC(=O)c1ccc(-c2ccccc2)cc1)C1CCc2ccccc2C1` (stereo not given) had an inhibition constant Ki of 1.58 nM.

As to `CCCN(CCCCNC(=O)c1ccc(-c2ccccc2)cc1)C1CCc2c(cccc2OS(=O)(=O)C(F)(F)F)C1` (stereo not given), the affinity, expressed as Ki, was 1.58 nM. This lies in the single-digit nanomolar range.

In turn, `COc1cccc2c1CCC(N(C)CCCCNC(=O)c1ccc(-c3ccccc3)cc1)C2` (stereo not given) had an inhibition constant (Ki) of 12.6 nM. Against the preceding compound, the Ki is about 8-fold higher.

The compound `CCCN(CCCCNC(=O)c1ccc(-c2ccccc2)cc1)C1CCc2c(O)cccc2C1` (stereo not given) had a Ki of 0.2 nM.

Take `CCCN(CCCCNC(=O)c1ccc(-c2ccccc2)cc1)C1CCc2c(Br)cccc2C1` (stereo not given): the Ki was 1.26 nM.

Consider `CCCN(CCCCNC(=O)c1ccc(-c2ccccc2)cc1)C1CCc2c(cccc2OS(C)(=O)=O)C1` (stereo not given), for which the inhibition constant Ki is 1.26 nM.

`CCCN(CCCCNC(=O)c1ccc(-c2ccccc2)cc1)C1CCc2c(cccc2OC)C1` (stereo not given) showed an inhibition constant (Ki) of 0.794 nM.

`CN(CCCCNC(=O)c1ccc(-c2ccccc2)cc1)C1CCc2c(O)cccc2C1` (stereo not given) had an inhibition constant (Ki) of 2.51 nM.

The target in a further test is T1, 5-hydroxytryptamine receptor 1A (Mus musculus, UniProt Q64264).
T1 sequence (Q64264 whole entry): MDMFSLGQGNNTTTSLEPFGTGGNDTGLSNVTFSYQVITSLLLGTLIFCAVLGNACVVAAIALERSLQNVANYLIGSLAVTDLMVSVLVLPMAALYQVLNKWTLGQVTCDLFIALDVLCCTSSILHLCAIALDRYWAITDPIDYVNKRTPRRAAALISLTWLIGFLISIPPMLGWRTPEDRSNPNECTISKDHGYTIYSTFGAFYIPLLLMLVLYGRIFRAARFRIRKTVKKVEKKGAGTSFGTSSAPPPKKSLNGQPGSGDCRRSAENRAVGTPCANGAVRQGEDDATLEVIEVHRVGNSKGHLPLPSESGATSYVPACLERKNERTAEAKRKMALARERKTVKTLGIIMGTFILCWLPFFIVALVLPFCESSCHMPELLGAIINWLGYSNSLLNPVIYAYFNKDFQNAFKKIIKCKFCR
Put plainly: Ability to displace [125I]iodosulpiride from 5-hydroxytryptamine 1A receptor.
As for `COc1ccccc1N1CCN(CCCCNC(=O)c2ccc(-c3ccc(C(C)=O)cc3)cc2)CC1`, the affinity, expressed as Ki, was 3.16 nM.

The record behind these values is ChEMBL document CHEMBL1153677, “A novel series of 2-aminotetralins with high affinity and selectivity for the dopamine D3 receptor” (Bioorg Med Chem Lett, 1997).
